Measurements from patent publication US8304447B2, “2-acylaminopropoanol-type glucosylceramide synthase inhibitors” (Genzyme Corporation, priority 2007, dated 2012).
pIC50: −log10 of the molar value.

What follows are compounds tested on GM3 (assay: GM3 Elisa assay). Conditions: 48 h, Table 1; B16-FO cells, 2 days incubation; read-out: IC50_uM_Mean.
Assay type: cell-based
How it was run: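 Murine B16-FO melanoma cells attached 6 h on collagen, then exposed to compounds for 2 days at 37 °C. After formaldehyde fixation, cell-surface GM3 (NeuAc) was detected by anti-GM3 IgM and peroxidase anti-mouse IgM with Quantablu fluorescence (Ex 325/Em 420).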

Row | SMILES | pIC50
1 | COc1c(C)cc(C(=O)CCCCC(=O)N[C@H](CN2CCCC2)[C@H](O)c2ccc3c(c2)OCCO3)cc1C [Compound 140, N-((1R,2R)-1-(2,3-dihydrobenzo[β][1,4]dioxin-6-yl)-1-hydroxy-3-(pyrrolidin-1-yl)propan-2-yl)-6-(4-methoxy-3,5-dimethylphenyl)-6-oxohexanamide] | ≥ 7.00
2 | Cc1ccc(OCCC(=O)N[C@H](CN2CCCC2)[C@H](O)c2ccc3c(c2)OCCO3)cc1 [Compound 59, N-((1R,2R)-1-(2,3-dihydrobenzo[β][1,4]dioxin-6-yl)-1-hydroxy-3-(pyrrolidin-1-yl)propan-2-yl)-3-(p-tolyloxy)propanamide] | ≥ 7.00
3 | COc1ccc(C(=O)CCCCCC(=O)N[C@H](CN2CCCC2)[C@H](O)c2ccc3c(c2)OCCO3)cc1 [Compound 156, N-((1R,2R)-1-(2,3-dihydrobenzo[β][1,4]dioxin-6-yl)-1-hydroxy-3-(pyrrolidin-1-yl)propan-2-yl)-7-(4-methoxyphenyl)-7-oxoheptanamide] | ≥ 7.00
4 | COc1ccc(C(=O)CCC(=O)N[C@H](CN2CCCC2)[C@H](O)c2ccc3c(c2)OCCO3)cc1 [Compound 154, N-((1R,2R)-1-(2,3-dihydrobenzo[b][1,4]dioxin-6-yl)-1-hydroxy-3-(pyrrolidin-1-yl)propan-2-yl)-4-(4-methoxyphenyl)-4-oxobutanamide] | 6.00 to 7.00
5 | O=C(CCOc1ccc(F)cc1)N[C@H](CN1CCCC1)[C@H](O)c1ccc2c(c1)OCCO2 [Compound 58, N-((1R,2R)-1-(2,3-dihydrobenzo[β][1,4]dioxin-6-yl)-1-hydroxy-3-(pyrrolidin-1-yl)propan-2-yl)-3-(4-fluorophenoxy)propanamide] | 6.00 to 7.00

Same assay, conditions: 48 h, Table 2; B16-FO cells, 2 days incubation; read-out: IC50_uM_Mean

Row | SMILES | pIC50
6 | CCCCCCCC(=O)N[C@H](CN1CCCC1CN1CCCC1)[C@H](O)c1ccc2c(c1)OCCO2 (some centres unmarked) [Compound 316] | 5.00 to 5.52
7 | COc1ccc(CCC(=O)N[C@H](CN2CCCC2CN2CCCC2)[C@H](O)c2ccc3c(c2)OCCO3)cc1Cl (some centres unmarked) [Compound 245] | 5.00 to 5.52
8 | CC(C)Oc1ccc(C(=O)CCCCCC(=O)N[C@H](CN2CCCC2)[C@H](O)c2ccc3c(c2)OCO3)cc1 [Compound 268, N-((1R,2R)-1-(benzo[δ][1,3]dioxol-5-yl)-1-hydroxy-3-(pyrrolidin-1-yl)propan-2-yl)-7-(4-isopropoxyphenyl)-7-oxoheptanamide (2S,3S)-2,3-dihydroxysuccinate] | ≥ 7.00
9 | CCCCCCCC(=O)N[C@H](CN1CCC(F)C1)[C@H](O)c1ccc2c(c1)OCCO2 (some centres unmarked) [Compound 322] | 6.00 to 7.00
10 | CC(C)Oc1ccc(C(=O)CCCCC(=O)N[C@H](CN2CCCC2)[C@H](O)c2ccc3c(c2)OCO3)cc1 [Compound 266] | ≥ 7.00
11 | COc1ccc(OCCC(=O)N[C@H](CN2CCCC2)[C@H](O)c2ccc(OC)cc2)cc1 [Compound 262, N-[2-Hydroxy-2-(4-methoxy-phenyl)-1-pyrrolidin-1-ylmethyl-ethyl]-3-(4-methoxy-phenoxy)-propionamide] | ≥ 7.00

Same assay, conditions: Table 3 (IC 50 Values); B16-FO cells; read-out: IC50_uM_Mean

Row | SMILES | pIC50
12 | COCCc1ccc([C@@H](O)[C@@H](CN2CCCC2)NC(=O)CCCC(=O)c2ccc(OC)cc2)cc1 [Compound 355] | 5.52 to 6.00
13 | COc1ccc(C(=O)CCCCCC(=O)N[C@H](CN2CCCC2)[C@H](O)c2ccc(OC)c(Cl)c2)cc1 [Compound 707] | ≥ 7.00
14 | COc1ccc(C(=O)CCCCC(=O)N(Cc2ccccn2)[C@H](CN2CCCC2)[C@H](O)c2ccc(O)cc2)cc1 [Compound 422] | 5.00 to 5.52
15 | COc1ccc(OCCC(=O)N(CC(=O)c2ccc(OC)cc2)[C@H](CN2CCCC2)[C@H](O)c2ccc(O)cc2)cc1 [Compound 715] | 5.00 to 5.52
16 | O=C(CCCOn1nnc2ccccc21)N[C@H](CN1CCCC1)[C@H](O)c1ccc2c(c1)OCCO2 [Compound 642] | 6.00 to 7.00
17 | O=C(CC(F)(F)F)N[C@H](CN1CCCC1)[C@H](O)c1ccc2c(c1)OCCO2 [Compound 624] | 5.00 to 5.52
18 | COc1ccc(C(=O)CCCCCC(=O)N[C@H](CN2CCC(F)CC2)[C@H](O)c2ccc3c(c2)OCCO3)cc1 [Compound 626] | 6.00 to 7.00
19 | CCCCCCOc1ccc([C@@H](O)[C@@H](CN2CC[C@H](O)C2)NC(=O)CCOc2ccc(OC)cc2)cc1 [Compound 454] | ≥ 7.00
20 | COc1ccc(C(=O)CCCCC(=O)N[C@H](CN2CCCC2)[C@H](O)c2ccc(Cl)s2)cc1 [Compound 494] | 6.00 to 7.00
21 | COc1ccc(OCCC(=O)N(Cc2ccc(-c3nc(C)no3)cc2)[C@H](CN2CCCC2)[C@H](O)c2ccc(O)cc2)cc1 [Compound 721] | 5.00 to 5.52
22 | CCCCCCCC(=O)N[C@H](CN1CCCC1)[C@H](O)c1ccc(OCc2ccccc2)cc1 [Compound 703] | ≥ 7.00
23 | COCCc1ccc([C@@H](O)[C@@H](CN2CCCC2)NC(=O)CCOc2ccc(OC)cc2)cc1 [Compound 356] | 5.52 to 6.00
24 | O=C(CCCOc1ccc(F)cc1)N[C@H](CN1CCCC1)[C@H](O)c1ccc2c(c1)OCCO2 [Compound 566] | ≥ 7.00
25 | CCCCCCOc1ccc([C@@H](O)[C@@H](CN2CC[C@@H](F)C2)NC(=O)CCOc2ccc(Cl)cc2)cc1 [Compound 731] | ≥ 7.00
26 | COc1ccc(C(=O)CCCCC(=O)N[C@H](CN2CCCC2)[C@H](O)c2ccc(-c3ccccc3)cc2)cc1 [Compound 694] | 6.00 to 7.00
27 | COc1ccc(OCCCC(=O)N[C@H](CN2CC[C@H](O)C2)[C@H](O)c2ccc(OCCCCF)cc2)cc1 [Compound 501] | ≥ 7.00
28 | COc1ccc(C(=O)CCCC(=O)N[C@H](CN2CC[C@H](O)C2)[C@H](O)c2ccc(OCCCCF)cc2)cc1 [Compound 500] | ≥ 7.00
29 | COc1ccc(C(=O)CCCCCC(=O)N[C@H](CN2CC[C@H](OC)C2)[C@H](O)c2ccc3c(c2)OCCO3)cc1 [Compound 583] | 5.00 to 5.52
30 | COc1ccc(C(=O)CCCCCC(=O)N[C@H](CN2CCC(C)(C)C2)[C@H](O)c2ccc3c(c2)OCCO3)cc1 [Compound 520] | 5.52 to 6.00
31 | O=C(CCCCC(=O)C1CCC(F)(F)CC1)N[C@H](CN1CCCC1)[C@H](O)c1ccc2c(c1)OCCO2 [Compound 558] | 5.52 to 6.00
32 | CCCCCCOc1ccc([C@@H](O)[C@@H](CN2CC[C@@H](F)C2)NC(=O)CCCOc2ccc(OC)cc2)cc1 [Compound 730] | ≥ 7.00
33 | COC1CCC(OCCC(=O)N[C@H](CN2C(C)CCCC2C)[C@@H](O)c2ccc3c(c2)OCCO3)CC1 (some centres unmarked) [Compound 598] | 5.00 to 5.52
34 | CCCCCCCC(=O)N[C@H](Cn1ccnc1C)[C@H](O)c1ccc2c(c1)OCCO2 [Compound 571] | 5.00 to 5.52
35 | O=C(CCCCCC1CCOCC1)N[C@H](CN1CCCC1)[C@H](O)c1ccc2c(c1)OCCO2 [Compound 559] | 6.00 to 7.00
36 | COCCOc1ccc([C@@H](O)[C@@H](CN2CCCC2)NC(=O)CCOc2ccc(OC)cc2)cc1 [Compound 714] | 5.00 to 5.52
37 | COCCCCCCCC(=O)N[C@H](CN1CC[C@H](O)C1)[C@H](O)c1ccc(OC(C)C)cc1 [Compound 456] | ≥ 7.00
38 | COc1ccc(C(=O)CCCCC(=O)N[C@H](CN2CCCC2)[C@H](O)c2ccc3c(c2)OC(F)(F)C(F)(F)O3)cc1 [Compound 403] | 5.52 to 6.00
39 | COc1ccc(OCCC(=O)N[C@@H](CN2CCCC2)[C@H](O)c2ccc3c(c2)OCCO3)cc1 [Compound 675] | 5.00 to 5.52
40 | COc1ccc(OCCC(=O)N[C@H](CN2CCCC2)[C@H](O)c2ccc(OCCOc3ccc(Cl)cc3)cc2)cc1 [Compound 723] | ≥ 7.00
41 | CCCCCCOc1ccc([C@@H](O)[C@@H](CN2C3CCC2CC3)NC(=O)CCCCCC(=O)c2ccc(OC)cc2)cc1 [Compound 374] | ≥ 7.00
